Experimental data taken from paper PMC6331810, “Novel Coumarin-Containing Aminophosphonatesas Antitumor Agent: Synthesis, Cytotoxicity, DNA-Binding and Apoptosis Evaluation” (Molecules, 2015).

Columns and labels:
[1] = test system: HCT-116 (Human colorectal cells); assay: MTT cytotoxicity assay, HCT-116; type: cell-based; conditions: for IC50: MTT, 48 h, no irradiation, mean ± SD of three experiments
Method: (§1) Cell Lines. The following in vitro human cancer cell lines were used: HCT-116 (Human colorectal cells), human KB (human nasopharyngeal carcinoma cells), MGC-803 (human lung adenocarcinoma cell line), HUVEC (Human Umbilical Vein Endothelial Cells). The cell lines (HCT-116, KB, MGC-803 and HUVEC) were purchased from the Cell Resource Center of Shanghai Institutes for Biological Sciences, the Academy of Sciences of China.
(§2) Cell Culture. HCT-116, human KB, MGC-803 and HUVEC cells were cultured in Dulbecco Modified Eagle Medium (DMEM; HyClone, Los Angeles, CA, USA), containing 4.0 mM L-Glutamine and 4500 mg/L Glucose, supplemented with 10% (v/v) foetalbovine serum (FBS; HyClone). The cell culturemedia was supplemented with penicillin/streptomycin at 100 Units/mL as adherent monolayers. Cell cultures were kept in a humidified incubator with 5% CO2 at 37 °C. Stock solutions were prepared in dimethyl sulfoxide (DMSO) and further dilutions were made with fresh culture medium. The concentration of DMSO in the final culture medium was 1%, which had no effect on the cell viability.
(§3) MTT Assay. Chemosensitivity was assessed using 3-(4,5-dimethylthiazol-2-yl)-2,5-diphenyl tetrazolium bromide (MTT) assay. Briefly, exponentially growing HCT-116 (3000–4000 cells/well), human KB (2000–3000 cells/well) and MGC 803 (2000–3000 cells/well) were seeded into 96-well plates and treated with indicated concentrations of samples for 48 h, and then […] of MTT (10 mg/mL) was added. After incubation for 4 h at 37 °C, the purple formazan crystals (i.e., a reduced form of MTT) generated from viable cells were dissolved by adding 100 μL DMSO in each well. The plates were swirled gently for 10 min to dissolve the precipitate, and quantified by measuring the optical density (OD) of the plates at a wavelength of 490 nm on plate reader (TECAN infinite M1000). Each concentration was repeated in three wells and the same experimental conditions were provided for all compounds and MTT analysis was repeated three times for each cell line.

[2] = test system: MGC-803 (human lung adenocarcinoma cell line); assay: MTT cytotoxicity assay, MGC-803; type: cell-based; conditions: 48 h, no irradiation, mean ± SD of three experiments
Method: as §1, §2, §3

[3] = test system: HUVEC (Human Umbilical Vein Endothelial Cells); assay: MTT cytotoxicity assay, HUVEC normal cells; type: cell-based; conditions: no irradiation, mean ± SD of three experiments
Method: as §1, §2, §3

CT-DNA = assay: Circular dichroism spectra of CT-DNA; type: binding, calf; conditions: [compound]/[DNA] 1:10; 1.5 × 10^−4 M DNA, 1.5 × 10^−5 M compound
Method: CD absorption spectra of DNA were measured in TBS at a 100 nm/min scan rate in the wavelength range from 200 to 500 nm, with 1.5 × 10^−4 M DNA in the absence and presence of each compound of 1.5 × 10^−5 M, respectively. The CD signal of TBS was taken as the background and subtracted from the spectra. All the spectroscopic experiments were performed at 25 °C.

[4] = test system: human KB (human nasopharyngeal carcinoma cells); assay: MTT cytotoxicity assay, human KB; type: cell-based; conditions: Homo sapiens, light or radiation study, 48 h, no irradiation, mean ± SD of three experiments
Method: as §1, §2, §3

[5] = test system: Bax, Bcl-2, cytochrome c, caspase-9 and caspase-3 in HCT-116 cells; assay: Western blot of apoptosis-related proteins; type: cell-based, human
From the text: To confirm the molecular mechanisms involved in the observed apoptosis alterations, we investigated the effects of compound 8j on the expression of proteins important for mitochondria mediated apoptosis. Apoptosis occurs through two different pathways, that is the intrinsic and extrinsic pathways. Intrinsic pathway involves mitochondria that play a pivotal role in apoptosis, whereas extrinsic pathway is mediated by cell death receptors such as Fas, TNF α after receiving the death signal. It is well-known that the intrinsic pathway is regulated by the Bcl-2 family of pro- and anti- apoptotic proteins, which stimulate the permeabilization of the mitochondrial outer membrane and cytochrome c released into the cytosol, promoting in the activation of the caspase cascade and the induction of apoptotic cell death. […] Then, the roles of important caspases (caspase-9 and caspase-3) were investigated. […] Thus, compound 8j induced HCT-116 cells apoptosis might decrease the activation of Bcl-2 and stimulate its downstream proteins which are associated with the mitochondria-dependent apoptotic pathway.
Figure 7 Effect of compound 8j on cytochrome c release and levels of Bcl-2, Bax, Caspase-9 and Caspase-3. Equal amount of protein was loaded on SDS-PAGE gel for western blot analysis as described in experimental section. β-actin was used as an internal control.

[6] = HCT-116, vs control cells, dose-dependent

## CCOP(=O)(OCC)C(NC(=O)CCOc1ccc2c(C)cc(=O)oc2c1)c1cccc(Br)c1 (centres unmarked) [Compound 8f, Diethyl(3-(4-methyl-2-oxo-2H-chromen-7-yloxy)propanamido)(3-bromophenyl)methylphospho-nate]
[1]
  IC50: 25.8 ± 1.21 µM
[2]
  IC50: 74.2 ± 3.36 µM
[3]
  IC50: > 100 µM
CT-DNA
  Negative AI decrease (CD absorption peak of CT-DNA at 247 nm): 26.9%
  Positive AI decrease (CD absorption peak of CT-DNA at 281 nm): 23.1%

## CCOP(=O)(OCC)C(C)(NC(=O)CCOc1ccc2c(C)cc(=O)oc2c1)c1ccccc1 (centres unmarked) [Compound 8j, Diethyl 1-(3-(4-methyl-2-oxo-2H-chromen-7-yloxy)propanamido)-1-phenylethylphosphonate]
[1]; HCT-116, vs 4-MU
  Fold of IC50 against HCT-116 relative to unsubstituted parent compound: about 12 fold
[1]; Homo sapiens, HCT-116, light or radiation study
  IC50: 8.68 ± 3.2 µM
[4]
  IC50: 0.08 µM
[5]; HCT-116, cytosol
  Cytochrome c release: accumulation of cytochrome c in the cytosol
[5]; HCT-116, vs control
  Levels of caspase-3 protein: marked increase
  Levels of caspase-9 protein: marked increase
[5]; [6]
  Expression of Bcl-2: decrease
  Levels of Bax: significant increase
[2]; Homo sapiens, MGC-803, light or radiation study
  IC50: 14.6 ± 1.11 µM
[3]; Homo sapiens, HUVEC, light or radiation study
  IC50: > 100 µM
CT-DNA
  Negative AI decrease (CD absorption peak of CT-DNA at 247 nm): 30.4%
  Positive AI decrease (CD absorption peak of CT-DNA at 281 nm): 26.82%
